Broadly, the EC50 is the midpoint of the concentration-response curve.

Molecules are shown by their SMILES. ≈ marks a conversion by molar mass, not a printed value.

In one experiment the target is E. coli PBP3 (Escherichia coli (strain K12), UniProt P0AD68). In words: E. coli PBP3 Bocillin-FL fluorescence polarization competition binding assay. In short, it runs like this:
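Competition against 0.1 μM Bocillin-FL for binding to 1.5 μM purified protein, read by fluorescence polarization for 60 min. Compounds tested from 0 to 1000 μM; EC50 taken as the concentration reducing probe binding.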
On the technique in general: Fluorescence polarisation rises when a labelled molecule tumbles more slowly, as on binding a larger partner.

The target of a further experiment is E. coli PBP1a (Escherichia coli (strain K12), UniProt P02918). In words: Radioligand competition binding assay with 14C-labeled boronic acid probe, PBP1a. From the text:
To determine the ability of boronic acid-based test PBP inhibitors to bind Penicillin Binding Proteins (PBPs), a radio-labelled boronic acid PBP inhibitor
[drawing 751] was used in competition binding assays to determine boronic acid PBP inhibitor binding to PBP1a or PBP1b from Escherichia coli. PBP1a and PBP1b were purified as described previously (Bertsche, U.; et al., J. Biol. Chem. 2005, 280 (45), 38096-38101; Born, P.; et al., J. Biol. Chem. 2006. 281 (37), 26985-26993). To establish assay conditions for competition binding, an enzyme titration/saturation binding experiment was performed. Saturation binding was performed in a buffer comprised of 20 mM Tris (pH 7.5), 500 mM NaCl and 0.1% (v/v) TritonX-100, with PBP1a/PBP1b at a final concentration of 0.1 μM and Compound A at final concentrations ranging from 0-100 μM. Mixtures were incubated for 60 minutes, then applied to Zeba Spin Desalting columns or plates (ThermoFisher Scientific) and centrifuged at 1000-1500×g for 2 minutes. The flow through, containing PBP bound with Compound A, was recovered and 100 μL mixed with 5 mL of UltimaGold liquid scintillation cocktail (Perkin Elmer), and the radioactivity counted using a Beckman Coulter LS 6500 Multipurpose scintillation counter. PBP binding of Compound A approached saturation at 20 μM of ^14C-labeled probe. The competition binding assay was validated using the beta-lactam ampicillin, with Compound A at a final concentration of 20 μM, PBP1a/PBP1b at a final concentration of 0.1 μM. PBP1a/PBP1b was incubated with ampicillin in a 96-well microplate for 60 minutes, then Compound A was added and the mixtures incubated for an additional 60 minutes. The mixtures were then applied to Zeba Spin desalting plates and centrifuged at 1000×g for 2 minutes. The flow through was recovered and 100 μl mixed with 5 ml of UltimaGold liquid scintillation cocktail and the radioactivity counted. […] Binding assays with boronic acid PBP inhibitors were performed in an identical fashion. The potency of boronic acid PBP inhibitors was reported as the EC50 value.

A further experiment has as its target E. coli PBP2 (Escherichia coli (strain K12), UniProt P0AD65). In words: E. coli PBP2 Bocillin-FL fluorescence polarization competition binding assay. Particulars: fluorescence polarization competition binding with Bocillin-FL; read-out: E. coli K12 PBP2 Potency (EC50). From the text:
To determine the ability of boronic acid-based test PBP inhibitors to bind Penicillin Binding Proteins (PBPs), Bocillin-FL (fluorescently-labeled penicillin V; ThermoFisher Scientific) was used in a fluorescence polarization (FP) competition binding assay to assess inhibitor binding to PBP2, PBP3 or PBP4 from Escherichia coli. PBPs were cloned and purified as described previously (King, D. T, et al., ACS Infectious Diseases 2015, 1, 175-184). To establish assay conditions for competition binding, an enzyme titration/saturation binding experiment was initially performed. Bocillin-FL was prepared at 0.2 μM in a buffer comprised of 50 mM Hepes (pH 8.0), 300 mM NaCl and 5% (v/v) glycerol. Saturation binding was performed by mixing 40 μl of PBP solutions ranging in concentrations from 0-12 μM with 40 μl of the 0.2 μM Bocillin-FL solution, in individual wells of a black 384-well microplate. FP was measured immediately upon mixing (Excitation, 490 nm; Emission, 520 nm; g-factor, 0.96), using a Cytation3 (BioTek) microplate reader and measured continuously for up to 120 minutes. […] For all PBPs the FP signal approached saturation with 1.5 μM PBP (final concentration). […] Assays (80 μl final volume) were performed with PBPs at a final concentration of 1.5 μM, Bocillin-FL at 0.1 μM and beta-lactam concentrations that ranged from 0-1000 μM. […] Bocillin-FL was added and the FP immediately measured for 60 minutes (90 minutes for PBP2). The beta-lactam potency was reported as the concentration of beta-lactam required to reduce binding of Bocillin-FL by […] (EC50). […] Binding assays for boronic acid PBP inhibitors were performed in an identical fashion.

Experiment [1] deals with E. coli DH5α empty pLBII vector control strain. In words: microbe, parasite or virus in culture. The class given is cell-based, Escherichia coli. Particulars: Escherichia coli, read-out: Microbiological Activity (MIC in mg/L), E. coli DH5α/pLBII. In short, it runs like this:
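MIC was the lowest concentration visibly free of growth after 16–20 h at 37 °C, against 5×10^5 CFU/mL of the empty-pLBII DH5α control strain. Twofold compound dilutions were made in cation-adjusted Mueller-Hinton broth.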

Experiment [2] relates to engineered strain of Escherichia coli harboring CTX-M15. In words: microbe, parasite or virus in culture. The experiment is classed as cell-based. Conditions: Escherichia coli, read-out: Microbiological Activity (MIC in mg/L), E. coli DH5α/pLBII-CTX-M15, engineered strain producing CTX-M15.

Chain of E. coli PBP2 (P0AD65 whole entry): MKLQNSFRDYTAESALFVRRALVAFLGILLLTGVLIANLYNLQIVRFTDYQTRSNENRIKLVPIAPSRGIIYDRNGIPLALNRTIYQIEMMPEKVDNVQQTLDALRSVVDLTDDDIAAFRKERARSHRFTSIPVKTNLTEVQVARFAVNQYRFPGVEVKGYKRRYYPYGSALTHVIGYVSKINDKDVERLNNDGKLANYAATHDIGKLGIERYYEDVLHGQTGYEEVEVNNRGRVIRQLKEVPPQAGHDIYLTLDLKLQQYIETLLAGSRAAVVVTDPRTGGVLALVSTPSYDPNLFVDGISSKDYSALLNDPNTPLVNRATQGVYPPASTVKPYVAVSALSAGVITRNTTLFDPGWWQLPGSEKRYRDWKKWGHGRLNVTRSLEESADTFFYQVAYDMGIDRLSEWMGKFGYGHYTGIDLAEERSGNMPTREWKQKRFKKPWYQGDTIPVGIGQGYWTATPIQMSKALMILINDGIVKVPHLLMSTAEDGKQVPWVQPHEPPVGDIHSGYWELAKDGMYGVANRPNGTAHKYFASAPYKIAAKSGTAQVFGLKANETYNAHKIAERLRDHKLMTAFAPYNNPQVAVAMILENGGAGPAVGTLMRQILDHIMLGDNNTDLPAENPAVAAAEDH
Chain of E. coli PBP1a (P02918 whole entry): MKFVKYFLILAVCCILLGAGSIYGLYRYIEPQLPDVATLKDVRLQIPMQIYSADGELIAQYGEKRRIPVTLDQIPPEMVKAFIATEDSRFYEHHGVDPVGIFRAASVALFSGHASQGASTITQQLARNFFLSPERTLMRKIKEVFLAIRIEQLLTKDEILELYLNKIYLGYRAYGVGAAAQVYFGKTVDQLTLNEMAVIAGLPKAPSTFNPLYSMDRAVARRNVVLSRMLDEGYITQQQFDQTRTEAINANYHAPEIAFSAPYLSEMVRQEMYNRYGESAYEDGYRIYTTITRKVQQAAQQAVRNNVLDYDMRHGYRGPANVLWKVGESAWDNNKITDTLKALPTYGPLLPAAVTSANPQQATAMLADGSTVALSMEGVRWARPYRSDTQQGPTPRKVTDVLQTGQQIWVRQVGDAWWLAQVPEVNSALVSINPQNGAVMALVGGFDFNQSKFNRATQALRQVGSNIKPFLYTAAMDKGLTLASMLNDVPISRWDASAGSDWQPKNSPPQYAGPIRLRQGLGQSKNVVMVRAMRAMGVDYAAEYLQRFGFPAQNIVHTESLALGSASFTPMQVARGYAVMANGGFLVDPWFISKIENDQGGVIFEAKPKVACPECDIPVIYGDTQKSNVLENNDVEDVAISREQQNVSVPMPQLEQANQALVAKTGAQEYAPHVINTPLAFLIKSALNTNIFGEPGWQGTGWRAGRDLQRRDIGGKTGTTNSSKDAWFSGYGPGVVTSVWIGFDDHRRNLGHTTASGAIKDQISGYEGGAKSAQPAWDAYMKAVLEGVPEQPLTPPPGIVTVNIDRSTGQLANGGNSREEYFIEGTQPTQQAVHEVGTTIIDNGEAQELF
Chain of E. coli PBP3 (P0AD68 whole entry): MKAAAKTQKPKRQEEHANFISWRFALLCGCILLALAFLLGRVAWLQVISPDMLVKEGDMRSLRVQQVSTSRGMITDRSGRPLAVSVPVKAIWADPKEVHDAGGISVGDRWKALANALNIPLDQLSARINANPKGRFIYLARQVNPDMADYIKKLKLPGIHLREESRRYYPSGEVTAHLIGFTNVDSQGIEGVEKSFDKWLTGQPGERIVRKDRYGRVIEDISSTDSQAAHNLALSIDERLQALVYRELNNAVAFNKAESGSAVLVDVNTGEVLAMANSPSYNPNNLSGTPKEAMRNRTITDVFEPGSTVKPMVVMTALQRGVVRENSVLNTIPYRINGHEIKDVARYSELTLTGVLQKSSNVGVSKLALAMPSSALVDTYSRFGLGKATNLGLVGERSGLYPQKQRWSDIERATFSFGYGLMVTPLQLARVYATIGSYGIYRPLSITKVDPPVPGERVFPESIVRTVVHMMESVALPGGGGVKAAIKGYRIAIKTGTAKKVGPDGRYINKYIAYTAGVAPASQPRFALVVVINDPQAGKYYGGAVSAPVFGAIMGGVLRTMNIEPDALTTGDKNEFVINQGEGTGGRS

Consider `CCN1CCN(C(=O)NC(C(=O)N[C@H]2Cc3cccc(C(=O)O)c3OB2O)c2ccc(OC)nc2)C(=O)C1=O` (stereo partly drawn) [Example 34, (3R)-3-(2-(4-ethyl-2,3-dioxopiperazine-1-carboxamido)-2-(6-methoxypyridin-3-yl)acetamido)-2-hydroxy-3,4-dihydro-2H-benzo[e][1,2]oxaborinine-8-carboxylic acid], for which the results for the 50% effective concentration (EC50) on E. coli PBP3, at E. coli PBP1a and on E. coli PBP2 were 30 to 500 µM, under 10 µM and over 500 µM, respectively. Further, the MIC in experiment [1] and in experiment [2] was 128 to 256 mg/L (≈ 237 to 475 µM) in each case.

(Values after patent US12173018B2, “Penicillin-binding protein inhibitors” (priority 2018, dated 2024).)
